Experimental data reported in paper PMC2957673 (Cancer chemotherapy and pharmacology, 2010).

How the values were obtained:
[1] = system: patients with advanced solid tumors; experiment: Phase I dose escalation: MTD and DLT of flavopiridol with FOLFIRI; type: in vivo, human
[2] = Flavopiridol plasma pharmacokinetics; type: in vivo; settings: human, intravenous
[3] = system: patients with refractory colorectal cancer; settings: combined with irinotecan at 125 mg/m^2 given weekly for 4 of every 6 weeks; cited from earlier work
[4] = system: melanoma; settings: single agent; 16 patients; cited from earlier work
[5] = in combination with flavopiridol
[6] = split-dose schedule (MTD2): 30-min bolus followed by 4-h infusion

O=c1[nH]cc(F)c(=O)[nH]1 [5FU, fluorouracil]
established MTD (FOLFIRI component), bolus [1, 5]: 400 mg/m^2
established MTD (FOLFIRI component), over 48 h [1, 5]: 2,400 mg/m^2

CN1CC[C@H](c2c(O)cc(O)c3c(=O)cc(-c4ccccc4Cl)oc23)[C@H](O)C1 [flavopiridol, Flavopiridol]
MTD with FOLFIRI ([1]; flavopiridol over 1 h (bolus schedule, cohort 9, MTD1), every 2 weeks): 80 mg/m^2
MTD with FOLFIRI, bolus part [1, 6]: 35 mg/m^2
MTD with FOLFIRI, part over 4 h [1, 6]: 35 mg/m^2
Cmax ([2]; Cmax, at MTDs, patients who experienced DLT): 3.48 µM
Cmax ([2]; Mean Cmax, cycle 1, cohort 9: flavopiridol 80 mg/m^2, irinotecan 180 mg/m^2, n 6): 2.69 µM
MTD of flavopiridol [3]: 50 mg/m^2
objective responses [4]: no objective responses

Nc1nc2c(c(=O)[nH]1)N(C=O)C(CNc1ccc(C(=O)N[C@@H](CCC(=O)O)C(=O)O)cc1)CN2 (some centres unmarked) [LV, leucovorin]
established MTD (FOLFIRI component) [1, 5]: 400 mg/m^2

CCc1c2c(nc3ccc(OC(=O)N4CCC(N5CCCCC5)CC4)cc13)-c1cc3c(c(=O)n1C2)COC(=O)[C@]3(O)CC [irinotecan]
established MTD (FOLFIRI component) [1, 5]: 180 mg/m^2
